Nine molecules from ChEMBL document CHEMBL1201862, “PubChem BioAssay data set” (2004) can be followed below.

Among the test systems are CAKI-1; EKVX; HCC 2998; HCT-15; HT-29; IGROV-1; K562; LOX IMVI; M14; MOLT-4; NCI-H23; SF-268; SK-MEL-28; SR; UACC-257; UO-31.
What all share (assay): growth of human tumour cells (NCI), 48 h

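96-well plates; 48 h exposure; 5 concentrations. Endpoints by linear interpolation between flanking doses. Not reached: highest tested concentration assigned. The concentration for 50% growth inhibition is given as GI50.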 The source made the active and inactive calls. Cut-off read from the data, not from the text of the source: active = GI50 up to about 1.1 µM and inactive = higher. Bounds are passed on as bounds.

`C1COCCSC2=C(SCCO1)SC(=C1SC3=C(SCCOCCOCCS3)S1)S2`: the GI50 in the test on CAKI-1 was > 100 µM (inactive); with EKVX, > 100 µM (inactive); in the test with HCC 2998, > 100 µM (inactive); in the test on HCT-15, more than 100 µM; with HT-29, > 100 µM (inactive); in the test on IGROV-1, > 100 µM (inactive). Moreover, the GI50 in the test with K562 is > 100 µM (inactive); in the test on LOX IMVI, > 100 µM (inactive); in the test with M14, > 100 µM (inactive); with MOLT-4, > 100 µM (inactive); in the test on NCI-H23, > 100 µM (inactive); with SF-268 it was 51.1 µM (inactive). Also, the GI50 in the test on SK-MEL-28 was > 100 µM (inactive); with SR, 66.4 µM (inactive); in the test on UACC-257, > 100 µM (inactive); in the test with UO-31 it was > 100 µM (inactive).

As for `S=c1sc2c(S)nc(S)nc2n1-c1ccccc1`, the GI50 in the test with CAKI-1 is > 100 µM (inactive); in the test with EKVX it was > 100 µM (inactive); in the test on HCC 2998, > 100 µM (inactive); with HCT-15 it was more than 100 µM; with HT-29, > 100 µM (inactive); with IGROV-1, > 100 µM (inactive). Also, the GI50 in the test with K562, in the test with LOX IMVI, in the test with M14, in the test with MOLT-4, in the test on NCI-H23 and in the test with SF-268 was > 100 µM (inactive) throughout. In addition, the GI50 in the test on SK-MEL-28, in the test on SR, in the test on UACC-257 and with UO-31 was > 100 µM (inactive) throughout.

For the molecule `O=C1NC2(NC(=O)C1=O)Nc1ccccc1S2`, the GI50 in the test on CAKI-1 is 62.5 µM (inactive); with EKVX, > 100 µM (inactive); in the test on HCC 2998, > 65.5 µM (inactive); in the test with HCT-15 it was 33.7 µM; in the test with HT-29, 67 µM (inactive); in the test on IGROV-1 it was > 92.7 µM (inactive). The GI50 is 39.8 µM (inactive) in the test on K562; 18.9 µM (inactive) in the test with LOX IMVI; 44.5 µM (inactive) in the test with M14; 27.5 µM (inactive) in the test on MOLT-4; > 63 µM (inactive) in the test on NCI-H23; 24.8 µM (inactive) in the test with SF-268. Moreover, the GI50 with SK-MEL-28 is 43.5 µM (inactive); with SR it was 24.5 µM (inactive); in the test with UACC-257 it was > 61.4 µM (inactive); with UO-31 it was 30.7 µM (inactive).

For the molecule `CCCCOC(=O)NC(=O)c1cn(CCCOC(=O)NCCCCCCNC(=O)OCCCn2cc(C(=O)NC(=O)OCCCC)c(=O)[nH]c2=O)c(=O)[nH]c1=O`, the GI50 in the test with EKVX was > 100 µM (inactive); in the test on HCC 2998, > 100 µM (inactive); in the test on HCT-15, more than 100 µM; in the test with HT-29, > 100 µM (inactive); in the test on IGROV-1, > 100 µM (inactive); in the test on K562, > 100 µM (inactive). In addition, the GI50 in the test with LOX IMVI is > 100 µM (inactive); in the test on M14 it was > 100 µM (inactive); in the test with NCI-H23, 44.6 µM (inactive); with SF-268 it was > 100 µM (inactive); with SK-MEL-28 it was > 100 µM (inactive); in the test on SR, > 100 µM (inactive). Further, the GI50 in the test on UACC-257 and with UO-31 was > 100 µM (inactive) in each case.

As for `N#CCC(=O)Nc1ccccc1O`, the GI50 with CAKI-1 is > 100 µM (inactive); in the test with EKVX, > 100 µM (inactive); in the test with HCC 2998, > 100 µM (inactive); in the test on HCT-15, more than 100 µM; in the test on HT-29 it was > 100 µM (inactive); in the test on IGROV-1, > 100 µM (inactive). For the same molecule, the GI50 in the test with K562, in the test with M14, in the test on MOLT-4, in the test on NCI-H23, in the test on SF-268 and in the test with SK-MEL-28 was > 100 µM (inactive) each time. For the same molecule, the GI50 with SR, in the test with UACC-257 and with UO-31 was > 100 µM (inactive) throughout.

Turning to `O=C(O)\C=C/C=C/C=C/C=C/C(=O)O`, the GI50 with CAKI-1 was > 100 µM (inactive); in the test with EKVX it was > 100 µM (inactive); in the test with HCC 2998, > 100 µM (inactive); with HCT-15 it was more than 100 µM; in the test on HT-29, > 100 µM (inactive); in the test on IGROV-1, > 100 µM (inactive). For the same molecule, the GI50 in the test with K562, in the test with LOX IMVI, in the test on M14, with MOLT-4, with NCI-H23 and with SF-268 was > 100 µM (inactive) each time. Besides, the GI50 with SK-MEL-28, in the test on SR, with UACC-257 and with UO-31 was > 100 µM (inactive) in each case.

Consider `CC1(C)OC(=O)C(=Cc2ccc(O)cc2)C(=O)O1`, for which the GI50 with CAKI-1 was > 100 µM (inactive); in the test with EKVX, > 100 µM (inactive); in the test with HCC 2998, > 100 µM (inactive); in the test on HCT-15 it was more than 100 µM; in the test on HT-29, > 100 µM (inactive); in the test with IGROV-1, > 100 µM (inactive). For the same molecule, the GI50 in the test with K562, in the test with LOX IMVI, in the test on M14, in the test on MOLT-4, in the test on NCI-H23 and in the test with SF-268 was > 100 µM (inactive) throughout. In addition, the GI50 in the test on SK-MEL-28, in the test with SR, with UACC-257 and with UO-31 was > 100 µM (inactive) in each case.

As to `CC(=O)OCC1OC(n2cc(I)c(=O)[nH]c2=O)C(OC(C)=O)C(OC(C)=O)C1OC(C)=O` (stereo unspecified), the GI50 was > 100 µM (inactive) in the test with CAKI-1; > 100 µM (inactive) with EKVX; > 100 µM (inactive) with HCC 2998; more than 100 µM in the test with HCT-15; > 100 µM (inactive) in the test with HT-29; > 100 µM (inactive) with IGROV-1. The GI50 with K562, in the test on LOX IMVI, with M14, with MOLT-4, in the test on NCI-H23 and with SF-268 was > 100 µM (inactive) throughout. In addition, the GI50 with SK-MEL-28, in the test with SR, in the test on UACC-257 and in the test with UO-31 was > 100 µM (inactive) in each case.

Turning to `NC(=O)N/N=C(/Cc1nc2ccc(C(=O)c3ccccc3)cc2nc1O)C(=O)Nc1ccc(C(F)(F)F)cc1[N+](=O)[O-]`, the GI50 was 42.8 µM (inactive) with CAKI-1; 14.2 µM (inactive) with EKVX; 61.4 µM (inactive) with HCC 2998; 50.7 µM with HCT-15; 57.4 µM (inactive) in the test on HT-29; > 100 µM (inactive) in the test on IGROV-1. The GI50 with K562 was 39.6 µM (inactive); with LOX IMVI it was 79.4 µM (inactive); in the test on M14 it was 85.9 µM (inactive); with MOLT-4, 6.1 µM (inactive); in the test with NCI-H23, 84.7 µM (inactive); with SF-268, > 100 µM (inactive). Besides, the GI50 in the test with SK-MEL-28 was > 100 µM (inactive); with SR it was 45.4 µM (inactive); with UACC-257 it was > 100 µM (inactive); in the test with UO-31 it was 51.5 µM (inactive).
